Experimental data from patent US20220144817A1 (Karuna Therapeutics, Inc., priority 2019, published 2022).
Structures can show the parent of a compound that is named as a salt.

How the values were obtained:
[1] = Pharmacokinetics following single oral dose administration in male Sprague-Dawley rats; format: in vivo; conditions: single oral dose of the tartrate salt, 25 mg/kg, plasma, normalized to actual dosing concentration
Protocol: Blood samples were collected from all animals in Groups 1-3 at 0.25, 0.5, 1, 2, 4, 6, 8, 12 and 24 hours post dose, with each animal bled at all time points. […] The slopes of the elimination phase of the concentrations vs. time curve used to calculate the T1/2 were determined by log-linear regression.
PK analyses were performed and validated using Phoenix® WinNonlin® version 8.0.
Estimated elimination half-life (tr) was also similar among treatment groups (ranged between 1.5 and 2.7 hours post-dose).

[2] = molecular target: T1, muscarinic acetylcholine receptor human M2 (hM2) (Homo sapiens, UniProt P08172); test: pERK dose response in CHO cells stably expressing hM2; format: cell-based; conditions: rank hM3>hM5>hM2
T1 construct: expressed in transfected cells
T1 sequence (P08172 1-466): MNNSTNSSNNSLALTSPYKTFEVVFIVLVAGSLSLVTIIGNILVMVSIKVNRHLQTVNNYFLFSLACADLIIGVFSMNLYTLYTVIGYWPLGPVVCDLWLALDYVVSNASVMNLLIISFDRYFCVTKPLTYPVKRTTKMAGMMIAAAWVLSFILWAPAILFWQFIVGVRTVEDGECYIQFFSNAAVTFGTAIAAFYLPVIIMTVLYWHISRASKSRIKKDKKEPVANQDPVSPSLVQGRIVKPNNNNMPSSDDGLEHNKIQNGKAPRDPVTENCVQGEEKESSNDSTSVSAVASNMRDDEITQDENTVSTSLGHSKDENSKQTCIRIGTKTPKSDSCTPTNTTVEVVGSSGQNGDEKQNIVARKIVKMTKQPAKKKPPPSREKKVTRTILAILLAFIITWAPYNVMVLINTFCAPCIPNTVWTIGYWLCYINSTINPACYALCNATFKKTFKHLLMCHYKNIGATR

[3] = molecular target: T2, muscarinic acetylcholine receptor human M3 (hM3) (Homo sapiens, UniProt P20309); test: pERK dose response in CHO cells stably expressing hM3; format: cell-based; conditions: for EC50: CHO cells expressing hM3, 5-minute incubation, normalized to maximum FBS response, n=3, read-out: pEC50 (pERK), M3 (converted); for agonist capacity at hM3: pERK, rank hM3>hM5>hM2
T2 construct: expressed in transfected cells
T2 sequence (P20309 whole entry): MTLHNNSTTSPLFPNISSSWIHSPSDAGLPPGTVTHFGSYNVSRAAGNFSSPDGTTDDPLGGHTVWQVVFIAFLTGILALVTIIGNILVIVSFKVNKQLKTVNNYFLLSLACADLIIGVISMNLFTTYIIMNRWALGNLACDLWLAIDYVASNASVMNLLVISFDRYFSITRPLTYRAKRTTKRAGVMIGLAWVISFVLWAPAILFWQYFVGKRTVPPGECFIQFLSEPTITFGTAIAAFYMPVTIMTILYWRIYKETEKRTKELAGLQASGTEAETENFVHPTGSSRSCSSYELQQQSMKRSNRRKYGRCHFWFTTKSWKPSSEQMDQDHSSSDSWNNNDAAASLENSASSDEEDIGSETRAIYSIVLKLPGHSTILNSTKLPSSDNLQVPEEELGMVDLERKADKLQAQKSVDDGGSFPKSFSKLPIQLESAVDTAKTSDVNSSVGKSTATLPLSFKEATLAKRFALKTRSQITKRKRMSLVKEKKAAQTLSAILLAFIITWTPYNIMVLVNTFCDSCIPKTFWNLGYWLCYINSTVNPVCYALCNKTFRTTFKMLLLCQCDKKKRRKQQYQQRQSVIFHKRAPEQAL

[4] = molecular target: T3, muscarinic acetylcholine receptor human M4 (hM4) (Homo sapiens, UniProt P08173); conditions: pERK; rank hM4>hM1
T3 sequence (P08173 1-479): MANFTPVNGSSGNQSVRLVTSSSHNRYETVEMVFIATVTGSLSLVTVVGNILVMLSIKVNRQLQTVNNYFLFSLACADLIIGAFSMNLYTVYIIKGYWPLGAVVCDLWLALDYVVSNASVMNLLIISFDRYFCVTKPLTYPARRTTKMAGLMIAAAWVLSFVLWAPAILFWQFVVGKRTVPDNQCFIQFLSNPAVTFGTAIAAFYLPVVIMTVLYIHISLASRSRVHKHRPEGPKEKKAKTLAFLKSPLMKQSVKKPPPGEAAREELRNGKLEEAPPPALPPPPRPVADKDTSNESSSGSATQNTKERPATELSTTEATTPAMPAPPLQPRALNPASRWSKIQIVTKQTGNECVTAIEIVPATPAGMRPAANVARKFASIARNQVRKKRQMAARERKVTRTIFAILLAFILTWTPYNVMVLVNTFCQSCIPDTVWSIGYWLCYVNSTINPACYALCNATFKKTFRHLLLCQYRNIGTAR
Excerpt: (§1) The Flp-In™ cell lines are designed for rapid generation of stable cell lines that express a protein of interest from a Flp-In™ expression vector.
(§2) Extracellular signal-related kinase (ERK1/2 or p42/44) is a kinase in the mitogen-activated protein kinase (MAPK) family. Phosphorylation of ERK (pERK) can be used as a common end point measurement for the activation of many classes of G protein coupled receptors (GPCR) and beta-arrestin linked signaling.
(§3) For the pERK assay, cells were serum starved for 5 to 6 hours. Curves were normalized to the maximum response from the fetal bovine serum (FBS) medium corresponding to a 5-minute stimulation. A 5-minute incubation with the agonists was selected for the dose response pERK assays (n=2).
(§4) Nonlinear regression curves were calculated per the three parameters method with no constraints.

[5] = molecular target: T4, muscarinic acetylcholine receptor human M5 (hM5) (Homo sapiens, UniProt P08912); test: pERK dose response in CHO cells stably expressing hM5; format: cell-based; conditions: rank hM3>hM5>hM2
T4 construct: expressed in transfected cells
T4 sequence (P08912 1-532): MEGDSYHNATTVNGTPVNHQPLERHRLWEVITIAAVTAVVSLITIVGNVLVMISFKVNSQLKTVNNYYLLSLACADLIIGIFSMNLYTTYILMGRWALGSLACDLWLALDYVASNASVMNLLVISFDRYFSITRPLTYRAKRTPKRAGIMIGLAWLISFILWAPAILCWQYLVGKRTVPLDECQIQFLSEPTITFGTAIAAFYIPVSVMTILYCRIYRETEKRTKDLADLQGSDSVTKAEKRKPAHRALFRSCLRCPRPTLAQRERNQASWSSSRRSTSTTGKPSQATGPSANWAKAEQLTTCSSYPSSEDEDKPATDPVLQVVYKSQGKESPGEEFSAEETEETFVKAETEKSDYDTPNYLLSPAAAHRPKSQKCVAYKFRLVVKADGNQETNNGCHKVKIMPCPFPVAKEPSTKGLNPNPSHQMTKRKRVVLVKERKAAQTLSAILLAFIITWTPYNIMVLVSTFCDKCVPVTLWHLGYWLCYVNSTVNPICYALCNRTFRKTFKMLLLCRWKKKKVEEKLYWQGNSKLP
Excerpt: as §1, §2, §3, §4

Row | normalized AUC [1] | agonist capacity at hM2 [2] | EC50 [3] | agonist capacity at hM3 [3] | agonist capacity at hM4 [4] | agonist capacity at hM5 [5] | SMILES
1 | 6780 pg·h/mg | modestly potent partial agonists | 27.2 nM | modestly potent partial agonists | efficacious partial agonist | modestly potent partial agonists | [2H]C([2H])([2H])N1CCC=C(c2nsnc2OC([2H])([2H])C([2H])([2H])C([2H])([2H])C([2H])([2H])C([2H])([2H])C([2H])([2H])[2H])C1 [Xanomeline-d16, 3-((hexyl-1,1,2,2,3,3,4,4,5,5,6,6,6-d13)oxy)-4-(1-(methyl-d3)-1,2,5,6-tetrahydropyridin-3-yl)-1,2,5-thiadiazole]
2 | 8070 pg·h/mg | modestly potent partial agonists | 9.66 nM | modestly potent partial agonists | efficacious partial agonist | modestly potent partial agonists | [2H]C([2H])([2H])C([2H])([2H])C([2H])([2H])C([2H])([2H])C([2H])([2H])C([2H])([2H])Oc1nsnc1C1=CCCN(C)C1 [Xanomeline-d13, 3-((hexyl-1,1,2,2,3,3,4,4,5,5,6,6,6-d13)oxy)-4-(1-methyl-1,2,5,6-tetrahydropyridin-3-yl)-1,2,5-thiadiazole]
3 | 4210 pg·h/mg | – | – | – | – | – | CCCCCCOc1nsnc1C1=CCCN(C)C1 [Xanomeline tartrate, 3-(hexyloxy)-4-(1-methyl-1,2,5,6-tetrahydropyridin-3-yl)-1,2,5-thiadiazole, reference compound]
